Measurements taken from US5714666A, “Measurement of intracellular calcium using bioluminescent apoaequorin expressed in mammalian cells” (Children's Hospital of Philadelphia, priority 1995, dated 1998).
Values belong to the compound of their own block, whether it stands above or below them.

Columns and labels:
Format in all cases: cell-based
[1] = biological target: T1, 5-HT2 receptor (Rattus norvegicus, UniProt P14842); test: Aequorin light emission assay in human 293 cells co-transfected with apoaequorin cDNA and 5-HT2 cDNA; settings: for Antagonist inhibition of light emission in response to serotonin: 50 μM antagonist, 30 seconds before 10 μM serotonin, FIG. 2
T1 construct: expressed in transfected cells; host or cells: human 293 cells, transiently co-transfected with pDPaqneo3 (apoaequorin) and pDP5ht2neo3
T1 sequence (P14842 whole entry): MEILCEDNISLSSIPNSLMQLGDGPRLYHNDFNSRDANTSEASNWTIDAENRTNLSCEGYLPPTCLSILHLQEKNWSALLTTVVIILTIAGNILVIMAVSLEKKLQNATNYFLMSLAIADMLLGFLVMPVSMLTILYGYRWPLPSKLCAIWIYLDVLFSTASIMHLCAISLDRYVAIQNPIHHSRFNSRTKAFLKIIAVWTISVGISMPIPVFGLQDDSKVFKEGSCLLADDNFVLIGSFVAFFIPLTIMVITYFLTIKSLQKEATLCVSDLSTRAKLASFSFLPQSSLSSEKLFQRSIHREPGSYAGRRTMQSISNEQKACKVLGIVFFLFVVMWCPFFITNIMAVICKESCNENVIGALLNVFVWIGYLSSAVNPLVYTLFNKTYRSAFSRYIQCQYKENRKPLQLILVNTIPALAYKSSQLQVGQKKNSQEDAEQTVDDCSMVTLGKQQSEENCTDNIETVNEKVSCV
Experimental: DNA from the apoaequorin plasmid (pDPaqneo3) and the 5-HT2 plasmid (pDPSht2neo3) were mixed in equal portions in the transfection solution immediately before transfection. Transfection was performed as described in Example 2.
(§1) Two days after the transfection, cells were washed twice with phosphate buffered saline (PBS). Cells were then harvested by ice-cold PBS and rubber policeman. After centrifugation at 1,600 r.p.m. for 5 minutes, the pellet was dissolved in Ca^++ -free AqH buffer (120 mM NaCl, 4.8 mM KCl, 1.2 mM KH2 PO4, 25 mM Hepes, 0.1% bovine serum albumin, pH 7.4) at a concentration about 10 million cells per 1 ml solution. Tubes containing cells were wrapped with aluminum foil. Coelenterazine was a generous gift from Dr. Kishi, Harvard University and Dr. Shimomura, Marine Biological Laboratory. It was stored at -70° C., dissolved in methanol immediately before use, and kept in the dark at all times. The concentration of coelenterazine was estimated by the measurement of absorbance at 434 nanometer [the molar absorptivity434 =8,900 M^-1·cm^-1; K. Hori, H. Charbonneau, R. C. Hart, M. J. Cormier, Proc. Natl. Acad. Sci. U.S.A. 74, 4285 (1977)]. Aequorin was reconstituted incubating these apoaequorin cDNA transfected cells with 10 μM coelenterazine in the dark room temperature for 30 minutes. Unincorporated coelenterazine was washed away after incubation by adding 25 ml Ca^++ -free AqH buffer to each sample and centrifugating at 1,600 r.p.m. Samples were centrifuged again and pellets of 293 cells were dissolved in Ca^++ -free AqH buffer. The final concentration of cells was approximately 10 million per 1 ml solution. For light emission measurement, 100 μl of cell sample was mixed with equal volume of appropriate reagent in a 2 ml glass tube immediately before inserted into the luminometer (Berthold Biolumat LB 9500). Counting of light emission started immediately after the glass tube insertion. The number of photons emitted during the first 30 seconds was integrated by the luminometer and shown on the screen. The time course of light emission was recorded on a chart recorder and a Mackintosh computer using the MacLab Chart/4 V3.1.3 program for further analysis.
Intracellular calcium concentration was measured as described in Example 15.

[2] = system: human 293 cells; test: Aequorin expression assay in human 293 cells transfected with a single plasmid (pDPaqneo3, pDP5ht2neo3 or pDP3 vector)
Experimental: Human 293 cells were cultured on 100 mm tissue culture dish in minimum essential medium (MEM) containing 10% charcoal treated fetal bovine serum, 2 mM L-glutamine, 100 units penicillin G sodium per ml, 100 units streptomycin sulfate per ml. DNA mediated transfection was performed when these cells grew to 70% to 80% confluence on the plates. These transfected cells were incubated in 3% CO2, 37° C. incubator overnight. Cells were replenished with fresh medium and transferred to 5% CO2, 37° C. incubator the next day [C. […] (17).
as §1, with “The concentration of coelenterazine was estimated by the measurement of absorbance at 434 nanometer [the molar absorptivity434 =8,900 M^-1·cm^-1; K. Hori, H. Charbonneau, R. C. Hart, M. J. Cormier, Proc. Natl. Acad. Sci. U.S.A. 74, 4285 (1977)].” left out

[3] = system: mouse primary neuron culture; test: Photon emission of primary neuron cultures from apoaequorin transgenic mice
Experimental: A transgenic mouse was mated with non-transgenic mouse B6XSJLF1 female mouse. The whole brains were removed from 19 day old mouse embryos and used to make primary neuronal cultures and incubated in minimum essential medium containing 500 μg genticin per ml. After ten days, cells were removed from plates, mixed with colenterazine and tested for aequorin expression using an expression assay.
Embryos resulting from mating transgenic mouse no.
Thereafter 10 μl (1 mg/ml PBS) Br-A23187 and 0.5 mM CaCl2 were added to the cell culture. The drug Br-A23187 opens calcium channels.

Antagonist inhibition of light emission in response to serotonin [1]: inhibited
Compound: CN(C)CCCSc1ccccc1NC(=O)/C=C/c1ccccc1 [cinanserin]

Compound: O=C(O)CN(CCN(CC(=O)O)CC(=O)O)CC(=O)O [EDTA]
Effect on Ca++ induced photon emission ([2]; EDTA added to buffer, pDPaqneo3-transfected cells (data not shown)): prevented the increase in photon emission

Photon emission upon addition of serotonin ([1]; cells co-transfected with pDPaqneo3 and pDP5ht2neo3): dramatic rise in photon emission
Detected photons ([1]; cells transfected with pDPaqneo3 & pDP5ht2neo3, 500 nM, first 30 seconds): 79,840 ± 3,342 photons
Photon emissions per cell ([1]; saturating concentration (500 μM)): ≤ 40 photons per cell
Compound: NCCc1c[nH]c2ccc(O)cc12 [serotonin]
Detected photons ([2]; cells transfected with pDP3 vector only, 500 nM): 1,599 photons
Detected photons ([2]; cells transfected with pDP5ht2neo3 only, 500 nM): 1,308 ± 339 photons
Photon emission upon serotonin treatment ([2]; cells transfected with pDPaqneo3 only, pDP5ht2neo3 only or pDP3 vector only): no increase of photo emission
Detected photons ([2]; cells transfected with pDPaqneo3 only, 500 nM): 6,150 photons

Compound: [Ca+2].[Cl-].[Cl-] [Ca^++, CaCl2]
Photon emission (excitotoxicity) ([3]; 100 μl of 100 mM CaCl2, control non-transgenic neuronal culture no. 6, FIG. 5B): no excitotoxic effect
Photon emission (excitotoxicity) ([3]; 100 μl of 100 mM CaCl2, culture from transgenic mouse no. 2, FIG. 5A): increase in cell excitotoxicity
Detected photons ([2]; cells transfected with pDP3 vector only, 50 nM Ca++): 1,607 photons
Detected photons ([2]; cells transfected with pDP5ht2neo3 only, 50 nM Ca++): 1,346 ± 167 photons
Photons detected upon addition of Ca++ ([2]; cells transfected with pDPaqneo3 and incubated with coelenterazine cofactor): rapid and dramatic increase in the photons detected
Detected photons ([2]; cells transfected with pDPaqneo3 only, 50 nM Ca++): 293,209 photons
Emission of photons upon addition of Ca++ ([2]; cells transfected with plasmids not containing apoaequorin cDNA and untransfected cells): no rise in the emission of photons
Light emission upon addition of Ca++ ([2]; pDPaqneo3 transfected cells not incubated with coelenterazine cofactor): no increase of light emission

Antagonist inhibition of light emission in response to serotonin [1]: inhibited
Compound: O=C(c1ccc(F)cc1)C1CCN(CCn2c(=O)[nH]c3ccccc3c2=O)CC1 [ketanserin]

Compound: Br-A23187
Photon emission (excitotoxicity) ([3]; 10 μl (1 mg/ml PBS) Br-A23187 with 0.5 mM CaCl2, culture from transgenic mouse no. 20, FIG. 6A): increased excitotoxicity
Photon emission (excitotoxicity) ([3]; Br-A23187 with 0.5 mM CaCl2 and 50 mM EGTA, culture from transgenic mouse no. 20, FIG. 6B): increased excitotoxicity
